Non-standard residues stand in square brackets, D forms with d. Residues, ends and D or L forms follow the SMILES beside them. NMeR = CN[C@@H](CCCNC(=N)N)C(=O)O; NMeT = CN[C@H](C(=O)O)[C@@H](C)O; NMeE = CN[C@@H](CCC(=O)O)C(=O)O; NMeD = CN[C@@H](CC(=O)O)C(=O)O; NMeV = CN[C@H](C(=O)O)C(C)C; NMeS = CN[C@@H](CO)C(=O)O
molecular target: Sushi domains (SD1/2) protein; experiment: Fluorescence polarization (FP) competition assay with AJAP-1probe, calculated Ki; format: binding; conditions: Table 6, elongation and truncation scan of PIANP binding epitope; read-out: Ki (nM) mean ± SEM
How it was run: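 Ki values were derived from IC50s (sigmoidal fits, ≥ triplicate), with probe Kd obtained by saturation titration of SD1/2. Peptides displaced a 25 nM TAMRA-labelled probe; polarization read at 530/580 nm in 1% BSA-containing PBS, pH 7.4, room temperature.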

Structure (SMILES) | Ki [nM]
CC[C@H](C)[C@H](NC(=O)[C@H](C)NC(=O)[C@H](Cc1c[nH]c2ccccc12)NC(=O)[C@@H]1CCCN1C(C)=O)C(=O)N[C@H](C(=O)N[C@@H](Cc1c[nH]c2ccccc12)C(=O)NCC(=O)N1CCC[C@H]1C(=O)N[C@H](C(=O)N[C@H](C(=O)N[C@@H](CO)C(=O)N[C@@H](CCCNC(=N)N)C(=O)N[C@@H](CCC(=O)O)C(=O)N[C@@H](CC(=O)O)C(=O)NCC(=O)NCC(=O)N[C@@H](CC(=O)O)C(=O)N1CCC[C@H]1C(N)=O)C(C)C)[C@@H](C)O)C(C)C (Ac-PWAIVWGPTVSREDGGDP-NH2) | 597 ± 7
CC[C@H](C)[C@H](NC(=O)[C@H](C)NC(=O)[C@H](Cc1c[nH]c2ccccc12)NC(=O)[C@@H]1CCCN1C(C)=O)C(=O)N[C@H](C(=O)N[C@@H](Cc1c[nH]c2ccccc12)C(=O)NCC(=O)N1CCC[C@H]1C(=O)N[C@H](C(=O)N[C@H](C(=O)N[C@@H](CO)C(=O)N[C@@H](CCCNC(=N)N)C(=O)N[C@@H](CCC(=O)O)C(=O)N[C@@H](CC(=O)O)C(=O)NCC(=O)NCC(=O)N[C@@H](CC(=O)O)C(=O)N1CCC[C@H]1C(=O)N[C@@H](CC(N)=O)C(N)=O)C(C)C)[C@@H](C)O)C(C)C (Ac-PWAIVWGPTVSREDGGDPN-NH2) | 579 ± 21
CC[C@H](C)[C@H](NC(=O)[C@H](C)NC(=O)[C@H](Cc1c[nH]c2ccccc12)NC(=O)[C@@H]1CCCN1C(C)=O)C(=O)N[C@H](C(=O)N[C@@H](Cc1c[nH]c2ccccc12)C(=O)NCC(=O)N1CCC[C@H]1C(=O)N[C@H](C(=O)N[C@H](C(=O)N[C@@H](CO)C(=O)N[C@@H](CCCNC(=N)N)C(=O)N[C@@H](CCC(=O)O)C(=O)N[C@@H](CC(=O)O)C(=O)NCC(=O)NCC(=O)N[C@@H](CC(=O)O)C(=O)N1CCC[C@H]1C(=O)N[C@@H](CC(N)=O)C(=O)N[C@@H](CO)C(N)=O)C(C)C)[C@@H](C)O)C(C)C (Ac-PWAIVWGPTVSREDGGDPNS-NH2) | 706 ± 16
CC[C@H](C)[C@H](NC(=O)[C@H](C)NC(=O)[C@H](Cc1c[nH]c2ccccc12)NC(=O)[C@@H]1CCCN1C(=O)[C@H](Cc1ccc(O)cc1)NC(=O)[C@H](CCC(N)=O)NC(C)=O)C(=O)N[C@H](C(=O)N[C@@H](Cc1c[nH]c2ccccc12)C(=O)NCC(=O)N1CCC[C@H]1C(=O)N[C@H](C(=O)N[C@H](C(=O)N[C@@H](CO)C(=O)N[C@@H](CCCNC(=N)N)C(=O)N[C@@H](CCC(=O)O)C(=O)N[C@@H](CC(=O)O)C(=O)NCC(N)=O)C(C)C)[C@@H](C)O)C(C)C (Ac-QYPWAIVWGPTVSREDG-NH2) | 650 ± 9

same assay, conditions: Table 9, Ala-, D-amino acids and N-methylation scans of PIANPWT; read-out: Ki (nM) mean ± SEM

Structure (SMILES) | Ki [nM]
CC[C@H](C)[C@H](NC(=O)[C@H](C)NC(=O)[C@H](Cc1c[nH]c2ccccc12)NC(=O)[C@@H]1CCCN1C(C)=O)C(=O)N[C@H](C(=O)N[C@@H](Cc1c[nH]c2ccccc12)C(=O)NCC(=O)N1CCC[C@H]1C(=O)N[C@H](C(=O)N[C@H](C(=O)N[C@@H](CO)C(=O)N[C@@H](CCCNC(=N)N)C(=O)N[C@@H](CCC(=O)O)C(=O)N(C)[C@@H](CC(=O)O)C(N)=O)C(C)C)[C@@H](C)O)C(C)C (Ac-PWAIVWGPTVSRE[NMeD]-NH2) | 434 ± 10
CC[C@H](C)[C@H](NC(=O)[C@H](C)NC(=O)[C@H](Cc1c[nH]c2ccccc12)NC(=O)[C@@H]1CCCN1C(C)=O)C(=O)N[C@H](C(=O)N[C@@H](Cc1c[nH]c2ccccc12)C(=O)NCC(=O)N1CCC[C@H]1C(=O)N[C@H](C(=O)N[C@H](C(=O)N[C@@H](CO)C(=O)N[C@@H](CCCNC(=N)N)C(=O)N(C)[C@@H](CCC(=O)O)C(=O)N[C@@H](CC(=O)O)C(N)=O)C(C)C)[C@@H](C)O)C(C)C (Ac-PWAIVWGPTVSR[NMeE]D-NH2) | 523 ± 13
CC[C@H](C)[C@H](NC(=O)[C@H](C)NC(=O)[C@H](Cc1c[nH]c2ccccc12)NC(=O)[C@@H]1CCCN1C(C)=O)C(=O)N[C@H](C(=O)N[C@@H](Cc1c[nH]c2ccccc12)C(=O)NCC(=O)N1CCC[C@H]1C(=O)N[C@H](C(=O)N[C@H](C(=O)N[C@@H](CO)C(=O)N(C)[C@@H](CCCNC(=N)N)C(=O)N[C@@H](CCC(=O)O)C(=O)N[C@@H](CC(=O)O)C(N)=O)C(C)C)[C@@H](C)O)C(C)C (Ac-PWAIVWGPTVS[NMeR]ED-NH2) | 502 ± 15
CC[C@H](C)[C@H](NC(=O)[C@H](C)NC(=O)[C@H](Cc1c[nH]c2ccccc12)NC(=O)[C@@H]1CCCN1C(C)=O)C(=O)N[C@H](C(=O)N[C@@H](Cc1c[nH]c2ccccc12)C(=O)NCC(=O)N1CCC[C@H]1C(=O)N[C@H](C(=O)N[C@H](C(=O)N(C)[C@@H](CO)C(=O)N[C@@H](CCCNC(=N)N)C(=O)N[C@@H](CCC(=O)O)C(=O)N[C@@H](CC(=O)O)C(N)=O)C(C)C)[C@@H](C)O)C(C)C (Ac-PWAIVWGPTV[NMeS]RED-NH2) | 1045 ± 1
CC[C@H](C)[C@H](NC(=O)[C@H](C)NC(=O)[C@H](Cc1c[nH]c2ccccc12)NC(=O)[C@@H]1CCCN1C(C)=O)C(=O)N[C@H](C(=O)N[C@@H](Cc1c[nH]c2ccccc12)C(=O)NCC(=O)N1CCC[C@H]1C(=O)N[C@H](C(=O)N(C)[C@H](C(=O)N[C@@H](CO)C(=O)N[C@@H](CCCNC(=N)N)C(=O)N[C@@H](CCC(=O)O)C(=O)N[C@@H](CC(=O)O)C(N)=O)C(C)C)[C@@H](C)O)C(C)C (Ac-PWAIVWGPT[NMeV]SRED-NH2) | 1780 ± 87
CC[C@H](C)[C@H](NC(=O)[C@H](C)NC(=O)[C@H](Cc1c[nH]c2ccccc12)NC(=O)[C@@H]1CCCN1C(C)=O)C(=O)N[C@H](C(=O)N[C@@H](Cc1c[nH]c2ccccc12)C(=O)NCC(=O)N1CCC[C@H]1C(=O)N(C)[C@H](C(=O)N[C@H](C(=O)N[C@@H](CO)C(=O)N[C@@H](CCCNC(=N)N)C(=O)N[C@@H](CCC(=O)O)C(=O)N[C@@H](CC(=O)O)C(N)=O)C(C)C)[C@@H](C)O)C(C)C (Ac-PWAIVWGP[NMeT]VSRED-NH2) | 1260 ± 27

same assay, conditions: Table 14, CPPs tagged peptides; read-out: Ki (nM) mean ± SEM

Structure (SMILES) | Ki [nM]
CC[C@H](C)[C@H](NC(=O)[C@H](Cc1c[nH]c2ccccc12)NC(=O)[C@H](CC(=O)O)NC(=O)[C@H](CC(=O)O)NC(=O)[C@H](CC(=O)O)NC(=O)[C@H](CCC(=O)O)NC(=O)[C@H](CCCNC(=N)N)NC(=O)[C@H](CCCNC(=N)N)NC(=O)[C@H](CCCNC(=N)N)NC(=O)[C@H](CCCNC(=N)N)NC(=O)[C@H](CCCNC(=N)N)NC(C)=O)C(=O)N[C@@H](CC(=O)O)C(=O)N[C@@H](Cc1c[nH]c2ccccc12)C(=O)NCC(=O)N1CCC[C@H]1C(=O)N[C@H](C(=O)N[C@@H](CO)C(=O)N[C@@H](CC(=O)O)C(=O)N[C@@H](CC(=O)O)C(=O)N[C@@H](CC(=O)O)C(N)=O)[C@@H](C)O (Ac-RRRRREDDDWIDWGPTSDDD-NH2) | 32 ± 1
CC[C@H](C)[C@H](NC(=O)[C@H](Cc1c[nH]c2ccccc12)NC(=O)[C@H](CC(=O)O)NC(=O)[C@H](CC(=O)O)NC(=O)[C@H](CC(=O)O)NC(=O)[C@H](CCC(=O)O)NC(=O)[C@H](CCCNC(=N)N)NC(=O)[C@H](CCCNC(=N)N)NC(=O)[C@H](CCCNC(=N)N)NC(=O)[C@H](CCCNC(=N)N)NC(=O)[C@H](CCCNC(=N)N)NC(C)=O)C(=O)N[C@@H](CC(=O)O)C(=O)N[C@@H](Cc1c[nH]c2ccccc12)C(=O)N[C@@H](Cc1ccc(O)cc1)C(=O)N[C@@H](CC(=O)O)C(=O)N[C@@H](CO)C(=O)N[C@@H](CC(=O)O)C(=O)N[C@@H](CC(=O)O)C(=O)N[C@@H](CC(=O)O)C(N)=O (Ac-RRRRREDDDWIDWYDSDDD-NH2) | 39.5 ± 2

From patent US20260193293A1, “PEPTIDES CAPABLE OF INHIBITING PROTEIN-PROTEIN INTERACTIONS AT GABAB1A SUBUNIT AND USES THEREOF” (UNIVERSITY OF COPENHAGEN, priority 2022, published 2026)
